Source: patent publication US20030064941A1, “Avermectin and praziquantel combination therapy” (priority 2001, published 2003)
Values after ≈ are worked out from the molar mass of the structure shown. Values joined by “and” are separate entries in the source; they are usually repeats but may differ in a detail not shown here. Identical values can stand only once. Like-named read-outs stand apart in the source and are kept apart here.

Columns and labels:
Dipylidium spp = experiment: Topical co-formulation efficacy against natural tapeworm infections in cats (post mortem counts); assay type: in vivo; settings: single topical dose, 30 days after treatment
Description: (§1) […] Cats harbouring natural tapeworm infections were used, and randomized to treatment based on pre-trial infections. Animals were killed 30 days after treatment, and post mortem tapeworm counts were conducted.

Taenia spp = experiment: as above; assay type: in vivo; settings: Trial "B", single topical dose, 30 days after treatment
Description: as §1

[1] = for Concentration (mg per g) / Concentration (mg per ml): selamectin added at 120 mg per ml, 30° C.
Description: (§2) To achieve this a series of solutions of varying IPA/DPGMME ratio were prepared. To help minimize any solubility issues, which could arise due to the presence of selamectin in a formulation, a constant amount of selamectin was added to each solution. After achieving saturated solubility in these solutions and following filtration to remove excess undissolved praziquantel, the level of praziquantel (and selamectin) in solution was determined by HPLC.
(§3) A series of IPA/DPGMME mixtures were prepared in duplicate as outlined in Table 1. To these were added a fixed amount of selamectin to provide a constant concentration of 120 mg per ml, i.e., the maximum selamectin concentration found in Stronghold™. After preparation these solutions were placed at 30° C. and rolled continuously for 48 hours.
(§4) Praziquantel was analysed using an gradient HPLC method modified from that developed for selamectin. […] This same method was also used to check on the selamectin content in these same solutions.
(§5) The solubility of praziquantel and selamectin in the IPA/DPGMME solutions was calculated as both mg per g and mg per ml. The mass of a 1 ml solution taken for analysis was also measured so that an approximate density could be calculated.

Taenia taeniaeformis = settings: cats, experimental immature infections; cited from earlier work
[2] = cats, 3× dosage levels (oral, subcutaneous, intramuscular) during reproduction; cited from earlier work
physchem = settings: 30 °C, organic solvent or mixture, thermodynamic from solid, solubility (based on mean values)
Description: as §2, §3, §4, §5

[3] = Trial "A", selamectin 8 mg/kg and/or praziquantel 1 mg/kg
[4] = Trial "B", selamectin 8 mg/kg and/or praziquantel 1 mg/kg
[5] = selamectin 8 mg/kg and/or praziquantel 1 mg/kg
[6] = solution 2A: IPA 75 / DPGMME 25 % V/V
[7] = solutions 1A/1B: IPA 100 / DPGMME 0 % V/V
[8] = solutions 3A/3B: IPA 50 / DPGMME 50 % V/V
[9] = solutions 4A/4B: IPA 25 / DPGMME 75 % V/V
[10] = solutions 5A/5B: IPA 0 / DPGMME 100 % V/V
[11] = Trial "B", praziquantel 0.5 mg/kg, alone or with selamectin 8 mg/kg
[12] = praziquantel 0.5 mg/kg, alone or with selamectin 8 mg/kg

## CO[C@H]1C[C@H](O[C@@H]2/C(C)=C/C[C@@H]3C[C@@H](C[C@]4(CC[C@H](C)[C@@H](C5CCCCC5)O4)O3)OC(=O)[C@@H]3C=C(C)/C(=N/O)[C@H]4OC/C(=C\C=C\[C@@H]2C)[C@]43O)O[C@@H](C)[C@@H]1O [Selamectin, 5-oximino-22,23-dihydro-25-cyclohexylayermectin B1]
Dipylidium spp; [3]
  % Efficacy (Dipylidium): 40%
  Mean Dipylidium post mortem count (n = 4 / gp): 7.2
Dipylidium spp; [4]
  Mean Dipylidium post mortem count (n = 5 / gp): No infection
Taenia spp; [5]
  Mean Taenia post mortem count (n = 5 / gp): No infection
[1]; IPA/DPGMME solutions, all ratios
  solubility as the IPA concentration reduces: ≥ 100 mg/g
[1]; [6]
  Concentration (mg per g): 118 mg per g
  Concentration (mg per ml): 103 mg per ml
[1]; [7]
  Concentration (mg per g): 123 mg per g
  Concentration (mg per ml): 103 mg per ml
[1]; [8]
  Concentration (mg per g): 113 mg per g
  Concentration (mg per ml): 103 mg per ml
[1]; [9]
  Concentration (mg per g): 113 mg per g and 108 mg per g
  Concentration (mg per ml): 107 mg per ml and 103 mg per ml
[1]; [10]
  Concentration (mg per g): 104 mg per g and 103 mg per g
  Concentration (mg per ml): 103 mg per ml and 102 mg per ml

## O=C(C1CCCCC1)N1CC(=O)N2CCc3ccccc3C2C1 (stereo not shown) [Praziquantel, 2-(cyclohexylcarbonyl)-1,2,3,6,7-11b-hexahydro-4H-pyraz-ino[2,1-a]isoquinolin-4-one]
Dipylidium spp; [3]
  % Efficacy (Dipylidium): 74%
  Mean Dipylidium post mortem count (n = 4 / gp): 3.25
Dipylidium spp; [11]
  % Efficacy (Dipylidium): 16%
  Mean Dipylidium post mortem count (n = 5 / gp): 7.6
Dipylidium spp; [4]
  % Efficacy (Dipylidium): 89%
  Mean Dipylidium post mortem count (n = 5 / gp): 1
Taenia spp; [12]
  % Efficacy (Taenia): 100%
  Mean Taenia post mortem count (n = 5 / gp): 0
Taenia spp; [5]
  % Efficacy (Taenia): 72%
  Mean Taenia post mortem count (n = 5 / gp): 1.2
Taenia taeniaeformis
  elimination of experimental T. taeniaeformis infections as young as seven (7) days: 100%
[2]
  effects on fertility, conception, fetal development or pregnancy: lack of effects on fertility, conception, fetal development or pregnancy
physchem
  solubility at 48 h: 67 mg/mL (≈ 214 mM)
